These results are taken from patent publication US9242970B2 (ACTELION PHARMACEUTICALS LTD., priority 2010, dated 2016).

Test [1] deals with rat. Particulars: rat model; cited from earlier work.
In test [2] the test system is rat. Particulars: cited from earlier work.
Test [3] has as its system rat. Conditions: cited from earlier work. The source holds these as a separate data set.
The target of another test is human orexin-1 receptor (Homo sapiens (Human), UniProt O43613). The test is described as follows: In vitro assay: intracellular calcium measurements (FLIPR), antagonistic activity. The test is classed as cell-based. Particulars: CHO cells, 3 nM orexin-A, compound incubation 120 min; marked values are geometric means of n = 2-6; read-out: IC50 OX1.
human orexin-1 receptor, sequence (O43613 whole entry): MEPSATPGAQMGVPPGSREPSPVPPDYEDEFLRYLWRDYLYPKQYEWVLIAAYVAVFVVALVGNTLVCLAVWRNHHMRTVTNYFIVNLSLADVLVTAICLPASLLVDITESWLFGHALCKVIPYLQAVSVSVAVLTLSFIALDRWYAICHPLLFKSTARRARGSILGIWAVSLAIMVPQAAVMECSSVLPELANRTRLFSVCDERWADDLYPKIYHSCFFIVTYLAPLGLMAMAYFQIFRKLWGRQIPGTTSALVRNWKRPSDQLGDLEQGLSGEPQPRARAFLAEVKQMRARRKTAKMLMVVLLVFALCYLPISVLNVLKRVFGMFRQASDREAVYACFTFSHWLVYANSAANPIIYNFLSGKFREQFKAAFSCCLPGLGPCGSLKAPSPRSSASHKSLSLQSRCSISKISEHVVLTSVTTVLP
The target in the next test is human orexin-2 receptor (Homo sapiens (Human), UniProt O43614). Described as above. The test is classed as cell-based. Conditions: CHO cells, 3 nM orexin-A, compound incubation 120 min; marked values are geometric means of n = 2-6; read-out: IC50 OX2.
human orexin-2 receptor, sequence (O43614 whole entry): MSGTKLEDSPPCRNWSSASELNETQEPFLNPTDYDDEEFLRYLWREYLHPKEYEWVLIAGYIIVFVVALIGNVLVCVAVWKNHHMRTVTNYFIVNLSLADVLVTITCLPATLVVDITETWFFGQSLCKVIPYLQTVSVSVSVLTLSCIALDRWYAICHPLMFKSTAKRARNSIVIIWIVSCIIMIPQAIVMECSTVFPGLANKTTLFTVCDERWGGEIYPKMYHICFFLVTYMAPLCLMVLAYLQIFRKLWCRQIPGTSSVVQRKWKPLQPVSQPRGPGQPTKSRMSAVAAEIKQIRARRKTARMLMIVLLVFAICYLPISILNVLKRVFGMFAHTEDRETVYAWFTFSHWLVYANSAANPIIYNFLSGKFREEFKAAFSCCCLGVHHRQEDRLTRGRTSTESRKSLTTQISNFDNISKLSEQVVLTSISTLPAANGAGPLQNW

As for `CNC(=O)[C@@H](c1ccccc1)N1CCc2cc(OC)c(OC)cc2[C@@H]1CCc1ccc(C(F)(F)F)cc1` [(2R)-2-{(1S)-6,7-dimethoxy-1-[2-(4-trifluoromethyl-phenyl)-ethyl]-3,4-dihydro-1H-isoquinolin-2-yl}-N-methyl-2-phenyl-acetamide], the memory function result in the test with rat [1] is on record as “enhance memory function”. Further, the “activity in post-traumatic stress disorder model” value in the test on rat [2] is reported as “active”. In addition, in the test on rat [3], the “alertness (active wake and locomotion)” value is reported as “decrease alertness”; the “time spent in REM and NREM sleep” value is “dose-dependently increase the time spent in both REM and NREM sleep”.
What is called IC50 is the concentration that gives 50% inhibition. Turning to `COc1ccc2c(c1C1CCCC(=O)N1Cc1cccc(-c3ncc(C)s3)c1)OCCO2` (centres unmarked) [Example 444, 6-(6-methoxy-2,3-dihydrobenzo[b][1,4]dioxin-5-yl)-1-(3-(5-methylthiazol-2-yl)benzyl)piperidin-2-one], the IC50 was determined as 7 nM at human orexin-1 receptor and 8 nM at human orexin-2 receptor.
Consider `COc1ccc2ccccc2c1C1CCCC(=O)N1Cc1cccc(-c2ncccn2)c1` (centres unmarked) [Example 445, 6-(2-methoxynaphthalen-1-yl)-1-(3-(pyrimidin-2-yl)benzyl)piperidin-2-one], for which the figures for the half-maximal inhibitory concentration (IC50) at human orexin-1 receptor and on human orexin-2 receptor were 21 nM and 90 nM, respectively.
In the case of `COc1ccc2ccccc2c1C1CCCC(=O)N1Cc1cccc(-c2ncc(C)s2)c1` (centres unmarked) [Example 446, 6-(2-methoxynaphthalen-1-yl)-1-(3-(5-methylthiazol-2-yl)benzyl)piperidin-2-one], the IC50 on human orexin-1 receptor came to 12 nM; at human orexin-2 receptor, 59 nM.
As for `COc1ccc2ccccc2c1C1CCCC(=O)N1Cc1cccc(Oc2ccccc2)c1` (centres unmarked) [Example 447, 6-(2-methoxynaphthalen-1-yl)-1-(3-phenoxybenzyl)piperidin-2-one], the results for the concentration for half-maximal inhibition (IC50) on human orexin-1 receptor and at human orexin-2 receptor were 112 nM and 92 nM, respectively.
Turning to `COc1ccc2c(c1C1CCCC(=O)N1Cc1cccc(-c3csc(C)n3)c1)OCO2` (centres unmarked) [Example 448, 6-(5-methoxybenzo[d][1,3]dioxol-4-yl)-1-(3-(2-methylthiazol-4-yl)benzyl)piperidin-2-one], the results for the IC50 at human orexin-1 receptor and on human orexin-2 receptor were 17 nM and 11 nM, respectively.
In the case of `COc1ccc2c(c1C1CCCC(=O)N1Cc1ccc(OC(F)(F)F)cc1)OCO2` (centres unmarked) [Example 449, 6-(5-methoxybenzo[d][1,3]dioxol-4-yl)-1-(4-(trifluoromethoxy)benzyl)piperidin-2-one], the IC50 on human orexin-1 receptor came out at 351 nM; at human orexin-2 receptor, 23 nM.
The corresponding values for `O=C1CCCCC(c2ccccc2-c2ccncc2)N1Cc1cccc(-c2nccs2)c1` (centres unmarked) [Example 450, 7-(2-(pyridin-4-yl)phenyl)-1-(3-(thiazol-2-yl)benzyl)azepan-2-one] are 561 nM and 15 nM.
Regarding `O=C1CCCCC(c2ccccc2-c2cncs2)N1Cc1cccc(-c2nccs2)c1` (centres unmarked) [Example 451, 1-(3-(thiazol-2-yl)benzyl)-7-(2-(thiazol-5-yl)phenyl)azepan-2-one], the concentration for half-maximal inhibition (IC50) at human orexin-1 receptor was found to be 427 nM; on human orexin-2 receptor, 19 nM.
The corresponding values for `O=C1CCCCC(c2ccccc2-c2cscn2)N1Cc1cccc(-c2nccs2)c1` (centres unmarked) [Example 452, 1-(3-(thiazol-2-yl)benzyl)-7-(2-(thiazol-4-yl)phenyl)azepan-2-one] are 105 nM and 15 nM.
The corresponding values for `O=C1CCCCC(c2ccccc2-c2cccnc2)N1Cc1cccc(-c2nccs2)c1` (centres unmarked) [Example 453, 7-(2-(pyridin-3-yl)phenyl)-1-(3-(thiazol-2-yl)benzyl)azepan-2-one] are 381 nM and 93 nM.
In the case of `O=C1CCCCC(c2ccccc2-c2ccccc2)N1Cc1cccc(-c2nccs2)c1` (centres unmarked) [Example 454, 7-([1,1′-biphenyl]-2-yl)-1-(3-(thiazol-2-yl)benzyl)azepan-2-one], the IC50 at human orexin-1 receptor stood at 182 nM; on human orexin-2 receptor, 77 nM.
The corresponding values for `COc1ccc2ncoc2c1C1CCCC(=O)N1Cc1cccc(-c2csc(C)n2)c1` (centres unmarked) [Example 455, 6-(6-methoxybenzo[d]oxazol-7-yl)-1-(3-(2-methylthiazol-4-yl)benzyl)piperidin-2-one] are 57 nM and 102 nM.
For `O=C1CCCC(c2ccnn2-c2ccccc2)N1Cc1cccc(-c2ccccc2)c1` (centres unmarked) [Example 456, 1-([1,1′-biphenyl]-3-ylmethyl)-6-(1-phenyl-1H-pyrazol-5-yl)piperidin-2-one], the half-maximal inhibitory concentration (IC50) was 654 nM at human orexin-1 receptor and 716 nM on human orexin-2 receptor.
For `COc1ccc2c(c1C1CCCC(=O)N1Cc1cccc(-c3ccccc3)c1)OCO2` (centres unmarked) [Example 457, 1-([1,1′-biphenyl]-3-ylmethyl)-6-(5-methoxybenzo[d][1,3]dioxol-4-yl)piperidin-2-one], the results for the concentration for half-maximal inhibition (IC50) at human orexin-1 receptor and on human orexin-2 receptor were 59 nM and 30 nM, respectively.
As to `COc1ccc2c(c1C1CCCC(=O)N1Cc1cccc(Oc3ccccc3)c1)OCO2` (centres unmarked) [Example 458, 6-(5-methoxybenzo[d][1,3]dioxol-4-yl)-1-(3-phenoxybenzyl)piperidin-2-one], the half-maximal inhibitory concentration (IC50) is 142 nM on human orexin-1 receptor and 14 nM on human orexin-2 receptor.
Take `COc1ccc2c(c1C1CCCC(=O)N1Cc1csc(-c3ccccc3)n1)OCO2` (centres unmarked) [Example 459, 6-(5-methoxybenzo[d][1,3]dioxol-4-yl)-1-((2-phenylthiazol-4-yl)methyl)piperidin-2-one]: the concentration for half-maximal inhibition (IC50) was determined as 108 nM on human orexin-1 receptor and 40 nM at human orexin-2 receptor.
For “rac-(3R*,5S*)-(3-chloro-4-(trifluoromethoxy)benzyl)-5-(2-ethoxy-6-fluorophenyl)-3-hydroxypyrrolidin-2-one [Example 429]”, in that order: 1160 nM and 15 nM.
